# Data published in patent publication US20110319274A1, “Identification of Compounds Modifying a Cellular Response” (Carlsberg A/S, priority 2004, published 2011).
# Tested on: GFP expressing U2OS cells and Hek293 cells
# Test: Adhesion peptide screening for low fluorescence/high adherence properties (FABS, microscope)
# Assay type: cell-based, Human
# Conditions: re-synthesized peptides on beads
# Experimental: An adhesion D-amino peptide library was synthesized (500,000 members) as described above in Example 1 and screened for low fluorescence/high adherence properties. This was done in 4 steps:
# 1) Selection of low fluorescent beads by Fluorescence Activated Bead Sorting (FABS).
# The 500,000 member adhesion peptide library was FABSorted and 150,000 low fluorescent beads were isolated.
# 2) Selection of beads with good cell adhesion properties.
# The 150,000 low fluorescent beads were incubated with GFP expressing U2OS cells followed by FABS sorting for high fluorescence (high cell adhesion). 536 beads were isolated.
# 3) Identification and isolation of beads with high Hek293 cell adherence properties.
# The 536 beads were cleared for U2OS cells and incubated with GFP expressing Hek293 cells. 47 beads with high cell adhesion properties were isolated using a fluorescence microscope.
# 4) Sequence elucidation and re-synthesis of selected peptides.
# 22 peptides were sequenced and six of them were re-synthesized. Based on Structure-Activity of the six peptides, four additional ones (AP-7 […] AP-10) were synthesized.
substance,measurement,value
arg-gln-arg-ile-arg (RQRIR; Cell adhesion peptide) [SEQ IS 35],overall performance (low fluorescence/high adherence properties),best overall performance
